From patent US10105380B2, “Glycoclusters and their pharmaceutical use as antibacterials” (priority 2013, dated 2018)
Converted amounts (≈) assume the structure as drawn. Like-named read-outs stand apart in the source and are kept apart here.

Assays:
[1] = molecular target: T1, PA-IL (Pseudomonas aeruginosa, UniProt Q05097); assay: Enzyme Linked Lectin Assay (ELLA), PAA-galactose coated plates; type: binding; settings: for ELLA βAr: IC50 of Gal-ArNO2 over IC50 of the molecule
Description: (§1) The binding of PA-IL to galactoclusters was probed as the ability of the clusters to inhibit the binding of PA-IL to rabbit erythrocytes (Hemagglutination inhibition assay, HIA) or to surface bound galactosyl modified polyacrylamide either by Surface Plasmon Resonance (SPR), Enzyme Linked Assay (ELLA) Inhibition was measured with competitive assays. In HIA experiments, the minimal inhibitory concentration (MIC) is the minimal concentration of galactocluster that inhibit the hemagglutination of rabbit erythrocytes in presence of the lectin. The lower the MIC the highest is the binding of the galactocluster to the lectin. SPR and ELLA were used to determine the IC50 value. […] The lower the IC50 value as determined by SPR (^SPRIC50) and ELLA (^ELLAIC50), the higher is the binding of PA-IL to the galactocluster.
96-Well microtiter plates (NuncMaxisorb) were coated with α-PAA-Gal(PAA=polyacrylamide) for PA-IL (Lectinity Holding, Inc.): 100 μL of 5 μg·mL^−1 in carbonate buffer, pH 9.6 for 1 h at 37° C., then blocking at 37° C. for 1 h with 100 μL per well of 3% (w/v) bovine serum albumin (BSA) in phosphate buffer solution (PBS). Lectin solutions (75 μL) were diluted (1:2) starting from 30 μg·mL^−1. After 1 h incubation at 37° C. and three washes with T-PBS (PBS that contained 0.05% Tween 20), horseradish peroxidase (HRP)-streptavidin conjugate (100 μL; dilution 2:8000; Boehringer-Mannheim) was added and left for 1 h at 37° C. Coloration was developed by using 100 μL per well of 0.05% phosphate/citrate buffer that contained o-phenylenediaminedihydrochloride ([…]) and urea hydrogen peroxide (0.4 mg·mL^−1) (OPD kit, Sigma-Aldrich) for 15 min and stopped with sulfuric acid (50 μL, 30%). Absorbance was then read at 490 nm using a microtiter plate reader (BioRad 680). The concentration of biotinylatedlectins was determined by plotting the relative absorbance versus lectin concentration. The concentration that led to the highest response in the linear area was selected as the standard lectin concentration for the subsequent inhibition experiments.
Microtiter plates were modified with PAA-galactose. Slides were incubated with increasing concentration of galactosylated ligands. […] The lowest the IC50 as determined the strongest is the binding of the studied molecule to PA-IL. ELLA: This IC50 will be referred here after ^ELLAIC50. SPR: This IC50 will be referred here after ^SPRIC50.

[2] = molecular target: T1, PA-IL; assay: Surface Plasmon Resonance (SPR) inhibition; type: binding; settings: for SPR βAr: IC50 of Gal-ArNO2 over IC50 of the molecule
Description: as §1
SPR inhibition experiments were performed using a Biacore 3000 instrument at 25° C. Measurements were carried out on two channels with two immobilized sugars: α-L-fucose (channel 1) and α-D-galactose (channel 2). Immobilization of sugars was performed at 25° C. using running buffer (HBS) at […]. Immobilization on each channel (CM5 Chip) was performed independently as follows. First, the channel was activated by injecting a fresh mixture of EDC/NHS (35 μL, 420 s). Then a solution of streptavidin ([…] in 0.1 mM AcONa pH 5 buffer) was injected (50 μL, 600 s). The remaining reactive species were quenched by injecting ethanolamine (1M, 35 μL, 420 s) into the solution. Finally, a solution of the desired biotinylated-polyacrylamide-sugar (lectinity, […]) was coated onto the surface (50 μL, 600 s) through streptavidin-biotin interaction. […] Inhibition studies consisted of the injection (150 μL, 10 μL·min^−1, dissociation 120 s) of incubated (>1 h, RT) mixtures of PAIL ([…]) and various concentrations of inhibitor (twofold cascade dilutions). […] The CM5 chip was fully regenerated by successive injections of d-galactose (2×30 μL, 100 mm in running buffer). Binding was measured as RU over time after blank subtraction, and data were then evaluated using the BIAevaluation Software version 4.1. For IC50 evaluation, the response (Req-fitted) was considered to be the amount of lectin bound to the carbohydrate-coated surface at equilibrium in the presence of a defined concentration of inhibitor. Inhibition curves were obtained by plotting the percentage of inhibition against the inhibitor concentration (on a logarithmic scale) by using Origin 7.0 software (OriginLab Corp.), and IC50 values were extracted from sigmoidal fit of the inhibition curve.
Microtiter plates were modified with PAA-galactose. […] The lowest the IC50 as determined the strongest is the binding of the studied molecule to PA-IL. […]

[3] = molecular target: T1, PA-IL; assay: Kd determination on DDI microarray (Langmuir isotherm, Scatchard plot); type: binding
Description: The methodologies for Kd and IC50 value determination have been previously reported (Gerland, B. et al., (2012) Bioconjugate Chem. 23, 1534-1547; Zhang, J. et al., (2009) Chem. Comm., 6795-6797; Zhang, J. et al., (2009) Biosens. Bioelectron. 24, 2515-2521).
CaCl2 (1 μg/mL final concentration) was added. PA-IL at the desired final concentration was then added. 2 μL of each solution (corresponding to the desired PA-IL concentration) were poured in the corresponding microwells. The slide was incubated (3 h, 37° C.) in a water vapor saturated chamber and finally washed in PBS-Tween 20 (0.02%, 5 min, 4° C.) and dried. A Microarray scanner, GenePix 4100A software package (Axon Instruments; λex 532/635 nm and λem 575/670 nm) was used for fluorescent imaging of both fluorophore (Cy3 and Alexa 647). The average of the mean fluorescence signal was calculated from eight spots. The resulting Langmuir Isotherms were linearised using Scatchard plot to give the Kd values at the ordonnate intercept.

[4] = molecular target: T1, PA-IL; type: binding; settings: for Potency vs EG3-O-Gal: ratio of IC50Lac to mono EG3-O-galactose (entry 1); for Potency vs AcNPhe-O-Gal: ratio of IC50Lac to mono-aromatic galactose 31 (entry 2)
Description: IC50 Determination with “on Chip” Biological Recognition
Lectin PA-IL (0.12 μM final concentration), BSA (2% final concentration) and CaCl2 (1 μg/mL final concentration) was diluted in PBS1× (pH=7.4). In each micro tube was added the inhibitor lactose at the desired final concentration (0; 1.10^−5; 1.10^−4; 5.10^−4; 1.10^−3; 5.10^−3; 1.10^−2; 5.10^−2; 0.1; 1; 5; 10; 50; 10^2; 5.10^2; 10^3; 5.10^3; 10^4; 10^5; 3.10^5).
2 μL of each solution were deposited in the corresponding microwells and the slide was incubated at 37° C. in a water vapor saturated chamber for 3 h. The washing steps are: PBS-Tween0.2% 5 min at 4° C., then briefly in deionized water and dried by centrifugation.
Slide was scanned at 532 nm then at 635 nm with the Microarray scanner, GenePix 4100A software package (Axon Instruments; λex 532/635 nm and λem 575/670 nm). The fluorescence signal of each conjugate was determined as the average of the mean fluorescence signal of sixty-four spots.
IC50 values were determined using “BioDataFit 1.02 program”. The model chosen was “Sigmoidal”: Y=a+(b−a)/[1+10^(x−c)]
with a=FImin, b=FImax, x=[…] and c=log(IC50). FImin/max is the minimum/maximum Alexa-647 fluorescence signal observed for a galactomimetic.
So the IC50 value was called IC50Lac.

[5] = molecular target: T1, PA-IL; assay: DDI glycoarray, direct fluorescence scanning with Alexa647-PA-IL; type: binding; settings: result in words
[6] = molecular target: T1, PA-IL; assay: Hemagglutination inhibition assay (HIA), rabbit erythrocytes; type: cell-based
Description: as §1
Hemagglutination inhibition assays (HIA) were performed in U-shaped 96-well microtitre plates. Rabbit erythrocytes were purchased from Biomérieux and used without further washing. Erythrocytes were diluted to a 8% solution in NaCl (100 mM). PA-IL solutions of 3 μM were prepared in TRIS-HCl 20 mM (TRIS=tris(hydroxymethyl)aminomethane), NaCl 100 mM, and CaCl2 100 mM. The hemagglutination unit (HU) was first obtained by addition of the 4% erythrocyte solution (50 μL) to aliquots (50 μL) of sequential (twice) lectin dilutions. The mixture was incubated at 25° C. for 30 min. The HU was measured as the minimum lectin concentration required to observe hemagglutination. For the following lectin-inhibition assays, lectin concentrations of 4 HU were used. […] Subsequent inhibition assays were then carried out by the addition of lectin solution (25 μL, at the required concentration) to sequential dilutions (50 μL) of glycoclusters, monomer molecules, and controls. These solutions were incubated at 37° C. for 30 min, then 8% erythrocyte solution (25 μL) was added, followed by an additional incubation at 37° C. for 1 h. The minimum inhibitory concentration for each molecule was determined for each duplicate.

[7] = DNA-tagged galactoclusters G1-G24 on glycoarray
[8] = lactose concentration required to displace 50% of PA-IL from the glycocluster, higher = better binding, read-out: IC50Lac
[9] = DNA-tagged galactoclusters G1-G24 on glycoarray, read-out: IC50
[10] = IC50 of Gal-OMe over IC50 of the molecule

T1 sequence (Q05097 2-122): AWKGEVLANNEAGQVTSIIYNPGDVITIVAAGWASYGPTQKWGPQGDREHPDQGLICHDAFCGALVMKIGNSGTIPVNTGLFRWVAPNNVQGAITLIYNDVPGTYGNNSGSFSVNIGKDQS

Man(POProTzEG3-O-Gal)4
ELLA βAr [1]: 1.2
SPR βAr [2]: 1.7

Man(PSEG3MTzproNCONapht-OGal)4 [G24]
Kd [3, 7]: 0.031 µM

Man(POEG2MTzEG3-Gal)4 [compound 36]
IC50 [4, 8]: 24 µM
Potency vs EG3-O-Gal [4]: 4.8
Potency vs AcNPhe-O-Gal [4]: 1.5

Man(PSEG2MTzproNCONapht-OGal)4 [G22]
Kd [3, 7]: 0.02 µM

Man(PSEG3MTzAcNPhe-CH2-SGal)4 [G16]
IC50 [4, 9]: 18100 µM
Kd [3, 7]: 0.075 µM

Man(EG3MTzproNCONapht-OGal)4 [G23]
IC50 [4, 9]: 68000 µM
Kd [3, 7]: 0.048 µM

Man(PSEG2MTzAcNPhe-CH2-Gal)4 [G6]
IC50 [4, 9]: 5700 µM
Kd [3, 7]: 0.17 µM

Man(EG2MTzAcNPhe-CH2-SGal)4 [G13]
IC50 [4, 9]: 12000 µM
Kd [3, 7]: 0.085 µM

Man(POProTzAcNPhe-O-Gal)4 [17d]
β ([4]; Table 6, relative potency vs monovalent ligand 31): 177
Potency vs EG3-O-Gal [4]: 565
Potency vs AcNPhe-O-Gal [4]: 177
binding to PA-IL on microarray [5]: high binding
Kd ([3]; text b577, microarray, Langmuir isotherm): 0.196 µM

Man(POProTzAcNPhe-O-Gal)8 [compound 34]
IC50 [4, 8]: 6800 µM
Potency vs EG3-O-Gal [4]: 1361
Potency vs AcNPhe-O-Gal [4]: 425

Man(PSEG3MTzAcNPh-SGal)4 [G12]
IC50 [4, 9]: 19700 µM
Kd [3, 7]: 0.07 µM

O=[N+]([O-])c1ccc(O[C@@H]2O[C@H](CO)[C@H](O)[C@H](O)[C@H]2O)cc1 [Gal-ArNO2, 1-O-p-nitrophenyl-β-D-galactoside]
IC50 [1]: 33 µM
ELLA βAr [1]: 1.0
ELLA βMe [1, 10]: 5.5
IC50 [2]: 6.7 µM
SPR βAr [2]: 1.0
SPR βMe [2, 10]: 7.3
MIC ([6]; minimal inhibitory concentration of hemagglutination, PA-IL 3 μM): 2000 µM (≈ 603 µg/mL)
βAr ([6]; ratio of MIC of Gal-OArNO2 over MIC of the molecule): 1.0
βMe ([6]; ratio of MIC of Gal-OMe over MIC of the molecule): 8.0

Man(HexTzM-Gal)4 [compound 18]
IC50 [4, 8]: 107 µM
Potency vs EG3-O-Gal [4]: 21
Potency vs AcNPhe-O-Gal [4]: 6.7
binding to PA-IL on microarray [5]: high binding

Man(EG3MTzproNCOBisphe-OGal)4 [G19]
IC50 [4, 9]: 68900 µM
Kd [3, 7]: 0.046 µM
